The record followed here is patent EP1455919B1, “IODINE EXTRACTION METHOD” (Commissariat à l'Énergie Atomique et aux Énergies …, priority 2001, dated 2003).

Molecules are shown by their SMILES.

Data set [1] is described as follows: Liquid-liquid extraction of iodine from nitric acid solution into the organic solvent (distribution coefficient Dex, gamma spectrometry). It counts as physicochemical. The following applies: equal volumes; for coefficient de distribution Dex de l'iode: first aqueous solution HNO3 3 mol/L, 125I 1500 kBq/L, ratio organic/aqueous iodine concentration at equilibrium. The protocol: Dans un premier temps, on met en contact, dans un tube en polypropylène étanche, une première solution aqueuse d'acide nitrique de concentration 3 mol/L contenant de l'iode ^125I, à une teneur de 1500 kBq/L avec une phase organique contenant du 1,2-NPHE. Les volumes de la solution aqueuse et de la phase organique sont égaux. L'ensemble est agité entre 10 minutes et une heure de façon douce par un dispositif approprié et ultérieurement mis dans une centrifugeuse pour une durée de 10 minutes à 4000 rpm.
On mesure le coefficient de distribution Dex de l'iode entre la première solution aqueuse et la phase organique, ce coefficient correspondant au rapport de la concentration en iode en phase organique à la concentration en iode en solution aqueuse à l'équilibre. Les concentrations en iode sont mesurées par spectrométrie gamma.

A short description of data set [2]: Re-extraction of iodine from the loaded organic solvent into aqueous sodium hydroxide solution (distribution coefficient Dréex). It counts as physicochemical. The text has this: Dans un deuxième temps, on met en contact la phase organique après extraction et après élimination de la première solution aqueuse, avec une deuxième solution aqueuse de réextraction, ladite solution étant une solution aqueuse de soude, les volumes de phase organique et de solution de réextraction étant sensiblement égaux.
Différents essais ont été effectués en faisant varier la concentration en soude de la deuxième solution aqueuse. On mesure les coefficients de distribution Dréex de l'iode, qui pour la réextraction correspond au rapport de la concentration en iode dans la seconde solution aqueuse à la concentration en iode en phase organique.

As to `CCCCCC(=O)O` [Acide Hexanoique, acide hexanoïque, reference compound], in data set [1], the “coefficient de distribution Dex de l'iode” value was 4,1. The Dréex in data set [2] (soude 0,1 mol/L (10^-1 mol/L)) was 0,04.

With `CC(C)CCCCCCCCCCO` [Isotridécanol, isotridécanol, reference compound], the “coefficient de distribution Dex de l'iode” value in data set [1] was 5,2. Further, in data set [2] (soude 0,1 mol/L (10^-1 mol/L)), the Dréex is 0,028.

Regarding `CCCCCCc1ccccc1` [hexylbenzène], the “coefficient de distribution Dex de l'iode” value in data set [1] was determined as 2.7. This molecule yielded a Dréex in data set [2] (soude 0,1 mol/L (10^-1 mol/L)) of 11.6.

In the case of `CCCCCC` [hexane], in data set [1], the “coefficient de distribution Dex de l'iode” value is reported as 1,5. The Dréex in data set [2] (soude 0,1 mol/L (10^-1 mol/L)) is recorded as 4,2.

On to `CCCCCCCCOc1ccccc1[N+](=O)[O-]` [1,2-NPOE, 1,2-nitrophényloctyléther], for which, in data set [1], the “coefficient de distribution Dex de l'iode” value is on record as 2,9. Besides, in data set [2] (soude 0,1 mol/L (10^-1 mol/L)), the Dréex is given as 1,7.

Consider `CC(=O)CC(C)C` [4-méthyl-1,2-pentanone, reference compound], for which the “coefficient de distribution Dex de l'iode” value in data set [1] was 9,1. The Dréex in data set [2] (soude 0,1 mol/L (10^-1 mol/L)) is reported as 0,012.

As for `CCCCCCCCO` [Octanol, octanol, reference compound], in data set [1], the “coefficient de distribution Dex de l'iode” value is reported as 8,7. In addition, in data set [2] (soude 0,1 mol/L (10^-1 mol/L)), the Dréex was 0,023.

For `CC(C)c1cccc(C(C)C)c1` [1,3-diisopropylbenzène], the “coefficient de distribution Dex de l'iode” value in data set [1] is 2,3. The Dréex in data set [2] (soude 0,1 mol/L (10^-1 mol/L)) is reported as 2,3.

As for `CCCCCCOc1ccccc1[N+](=O)[O-]` [1,2-NPHE, 1,2-nitrophénylhexyléther], in data set [1] (corresponds to Dex of 3, HNO3 3 mol/L), the “% d'extraction” value came to 75%. Besides, in data set [1], the “coefficient de distribution Dex de l'iode” value stood at 3. Also, the Dréex in data set [2] (soude 0,1 mol/L (10^-1 mol/L)) is 5,7; in data set [2] (soude 0,5 mol/L) it was 6,6; in data set [2] (soude 0,6 mol/L) it was 7,6; in data set [2] (soude 1,5 mol/L) it was 6,6; in data set [2] (soude 1 mol/L), 7,0; in data set [2] (soude 2 mol/L, ratio aqueous/organic), 6,3. The Dréex is 5,5 in data set [2] (soude 5.10^-2 mol/L); 0,04 in data set [2] (soude 5.10^-3 mol/L); 5,8 in data set [2] (soude 10^-1 mol/L with borohydrure de sodium 10^-3 mol/L); 4,9 in data set [2] (soude 10^-2 mol/L); 0,02 in data set [2] (soude 10^-3 mol/L); 0 in data set [2] (soude 10^-4 mol/L).

For `CCCCOC(C)=O` [Acétate de butyle, acétate de butyle, reference compound], the “coefficient de distribution Dex de l'iode” value in data set [1] is 6,6. Also, the Dréex in data set [2] (soude 0,1 mol/L (10^-1 mol/L)) was 0,014.
